Earlier results, collected in the CATMoS acute toxicity set (Mansouri et al. 2021).

Assay: rat acute oral toxicity
Conditions: in vivo

Row | SMILES | LD50 [mg/kg]
1 | Cc1cc(C(=O)c2ccccc2)ccc1N | 700
2 | CNC=O | 4000
3 | CCOP(=O)(OCC)N(SN(C)C(=O)ON=C(C)SC)C(C)C | 100
4 | COC(=O)C1(O)c2ccccc2-c2ccc(Cl)cc21 (stereo unspecified) | 3100
5 | CCCCCCCCCN(CCCCCCCCC)CCCCCCCCC | 5600
6 | Nc1cc2c(S(=O)(=O)O)cccc2c(S(=O)(=O)O)c1N | 29000
7 | O=C1CCC(N2C(=O)c3ccccc3C2=O)C(=O)N1 (stereo unspecified) | 113
8 | CCOP(=S)(OCC)Oc1cc(C)[nH]n1 | 12
9 | N#Cc1ccc(C2CCCc3cncn32)cc1 (stereo unspecified) | 200
10 | CS(=O)(=O)OC[C@@H]1O[C@H]1[C@@H]1O[C@H]1COS(C)(=O)=O | 225
11 | CCC(C)=CCCC(C)=O | 3570
12 | O=C(O)Cc1ccccc1Oc1c(Cl)c(Cl)cc(Cl)c1Cl | 303
13 | ON=CC=NO | 119
14 | CC1(C(=O)O)CC=CCC1 (stereo unspecified) | 2140
15 | OCCOc1ccc(Cl)cc1Cl | 1410
16 | O=C1C(CCC2CC2)C(=O)N(c2ccccc2)N1c1ccccc1 | 400
17 | COC1CCC(OC2C(C)C(O)(C(C)C(=O)O)OC(CC3CC(OC)C(C)C4(O3)OC(C)(C3CCC(C5CCC(C6OC(C)(O)C(C)C(OC)C6C)O5)O3)C(OC)C4C)C2(C)OC)OC1C (stereo unspecified) | 7
18 | COc1ccc2c3c1O[C@H]1C[C@@H](O)C=C[C@@]31CCN(C)C2 | 75
19 | ClC1=C(Cl)C2(Cl)C3CC(Cl)(Cl)CC3C1(Cl)C2(Cl)Cl (stereo unspecified) | 500

Row | SMILES | LD50 [mg/kg]
20 | CCCCCCCc1ccc(C)cc1O | 3320
21 | Clc1cncc(N2CCNCC2)n1 | 79.6
22 | CC(C)(N1CC1C#N)N1CC1C(N)=O (stereo unspecified) | 3100
23 | CCN(CC)C(=O)c1ccccc1C | 1210
24 | CC1(CCO)CCOCO1 (stereo unspecified) | 8800
25 | CNC(=O)Oc1cc(C(C)C)c(OC(=O)NC)cc1C | 60
26 | CCC1CN2CCC1CC2C(O)c1ccnc2ccc(OC)cc12 (stereo unspecified) | 369
27 | C=Cc1cccc(Cl)c1 | 5200
28 | CN(C)N=Nc1ccccc1 | 310
29 | CC(C)(Oc1ccc(Cl)cc1)C(=O)OCCCOC(=O)C(C)(C)Oc1ccc(Cl)cc1 | 7300
30 | O=[N+]([O-])c1ccc(Nc2ccc(O)cc2)c([N+](=O)[O-])c1 | 15600
31 | Nc1nnc(C=Cc2ccc([N+](=O)[O-])o2)s1 | 1880
32 | Cc1ccc(B2OCC3(CO2)COB(c2ccc(C)cc2)OC3)cc1 | 1130
33 | O=S1(=O)CCCCO1 | 500
34 | COc1cc(Cc2cnc(N)nc2N)cc(OC)c1Br | 2510
35 | CC(C)OP(=O)(OC(C)C)SCc1ccccc1 | 550
36 | CC1=CCC2C(C1)C2(C)C (stereo unspecified) | 4800
37 | CCN(CC)CCOC(=O)c1ccc(N)cc1 | 200
38 | C#CCN(C)C1CCc2ccccc21 (stereo unspecified) | 250

Row | SMILES | LD50 [mg/kg]
39 | Cc1ccc2ccccc2n1 | 1230
40 | O=C(CN1CCOCC1)N/N=C/c1ccc([N+](=O)[O-])o1 | 420
41 | O=CNc1ccc(Br)cc1 | 1120
42 | CCOC(=O)Nc1ccc2c(c1)N(C(=O)CCN1CCOCC1)c1ccccc1CC2 | 623
43 | FC(F)(Cl)C(Cl)Cl | 3290
44 | CNCC(O)c1ccc(OC(=O)C(C)(C)C)c(OC(=O)C(C)(C)C)c1 (stereo unspecified) | 183
45 | O=[N+]([O-])c1ccc(C=Cc2ccc([N+](=O)[O-])cc2S(=O)(=O)O)c(S(=O)(=O)O)c1 | 12600
46 | O=C(Cc1ccc(-c2ccccc2)cc1)OCCF | 6
47 | CCCCCCCCCCCCN(C)C | 800
48 | Oc1cc(Cl)c(Br)cc1Cl | 1350
49 | O=C1CCc2cc(C(=O)CCCN3CCN(c4ccccc4Cl)CC3)ccc2N1 | 500
50 | CC(C)(Oc1ccc(Cl)cc1)C(=O)OCc1cccc(CO)n1 | 1250
51 | COc1ccc(-c2nc3ccc(C4=NNC(=O)CC4C)cc3[nH]2)cc1 (stereo unspecified) | 950
52 | CCNc1cccc(C)c1 | 580
53 | CCCCOCCOCCCC | 3250
54 | CCCCCCCCCCCCCCCCCCCCCCO | 10000
55 | CCCC[N+]1(C)[C@@H]2C[C@@H](OC(=O)[C@H](CO)c3ccccc3)C[C@H]1[C@@H]1O[C@@H]12 (stereo partly specified) | 1040
56 | O=C(OC1CCC(N2CCCCC2)CC1)c1ccccc1 (stereo unspecified) | 780
